In patent US20050209157A1, “Short bioactive peptides and methods for their use” (priority 2001, published 2005):
No end group written: not given here.

system: Pseudomonas aeruginosa ATCC 9027; test: Antimicrobial assay I, MIC by OD measurement; format: cell-based; details: 37° C. for 24 hours, absorbance 620 nm

Substance | paerug9027 (MIC)
FALKALKKAL-NH2 [P170, FALKALKKAL-NH2] | 100 µg/mL
FAKKLAKALL-NH2 [P58] | 100 µg/mL
FAKAIAKIAFGKGIGKVGKKLL-NH2 [P134] | > (> indicates greater than 200 μg/mL)
FAKLF-NH2 [P129, FAKLF-NH2] | 25 µg/mL
FAKLLAKLAKK-NH2 [P151] | > (> indicates greater than 200 μg/mL)
FAKLFAKAFKKAL-NH2 [P117, FAKLFAKAFKKAL-NH2] | 200 µg/mL
FAKLWAKLAKKL-NH2 [P136] | 50 µg/mL
FAKKLAKLAKKL-NH2 [P106] | 25 µg/mL

system: Staphylococcus aureus ATCC 6538; test: Antimicrobial assay I, MIC by OD measurement; format: cell-based; details: 37° C. for 24 hours, absorbance 620 nm

Substance | staph6538 (MIC)
FALKALKKAL-NH2 [P170, FALKALKKAL-NH2] | 200 µg/mL
FAKKLAKALL-NH2 [P58] | 100 µg/mL
FAKAIAKIAFGKGIGKVGKKLL-NH2 [P134] | 100 µg/mL
FAKLF-NH2 [P129, FAKLF-NH2] | 100 µg/mL
FAKLLAKLAKK-NH2 [P151] | > (> indicates greater than 200 μg/mL)
FAKLFAKAFKKAL-NH2 [P117, FAKLFAKAFKKAL-NH2] | 100 µg/mL
FAKLWAKLAKKL-NH2 [P136] | 100 µg/mL
FAKKLAKLAKKL-NH2 [P106] | 100 µg/mL

system: yeast (Saccharomyces cerevisiae); test: Antimicrobial assay I, yeast assay in RPMI 1640; format: cell-based; details: RPMI 1640 media

Substance | yeast (MIC or MFC) [µg/mL]
FALKALKKAL-NH2 [P170, FALKALKKAL-NH2] | 100
FAKKLAKALL-NH2 [P58] | 200
FAKAIAKIAFGKGIGKVGKKLL-NH2 [P134] | 200
FAKLF-NH2 [P129, FAKLF-NH2] | 100
FAKLLAKLAKK-NH2 [P151] | 200
FAKLFAKAFKKAL-NH2 [P117, FAKLFAKAFKKAL-NH2] | 200
FAKLWAKLAKKL-NH2 [P136] | 100
FAKKLAKLAKKL-NH2 [P106] | 100

system: BMKC; test: Anti-cancer assay, MTT, LD50; format: cell-based; details: BMKC cloned melanoma line, 24 hours with peptide
Source text: (§1) Numbers are LD50 values (μg/mL).

Substance | LD50 BMKC
FALKALKKAL-NH2 [P170, FALKALKKAL-NH2] | > (> indicates greater than 1000)
FAKKLAKALL-NH2 [P58] | > (> indicates greater than 1000)
FAKAIAKIAFGKGIGKVGKKLL-NH2 [P134] | > (> indicates greater than 1000)
FAKLF-NH2 [P129, FAKLF-NH2] | > (> indicates greater than 1000)
FAKLLAKLAKK-NH2 [P151] | > (> indicates greater than 1000)
FAKLFAKAFKKAL-NH2 [P117, FAKLFAKAFKKAL-NH2] | > (> indicates greater than 1000)
FAKLWAKLAKKL-NH2 [P136] | 530 µg/mL
FAKKLAKLAKKL-NH2 [P106] | 690 µg/mL

system: H1299; test: Anti-cancer assay, MTT, LD50; format: cell-based; details: 24 hours with peptide, lung large cell carcinoma
Source text: as §1

Substance | H1299 LD50
FALKALKKAL-NH2 [P170, FALKALKKAL-NH2] | > (> indicates greater than 1000)
FAKKLAKALL-NH2 [P58] | > (> indicates greater than 1000)
FAKAIAKIAFGKGIGKVGKKLL-NH2 [P134] | > (> indicates greater than 1000)
FAKLF-NH2 [P129, FAKLF-NH2] | 790 µg/mL
FAKLLAKLAKK-NH2 [P151] | > (> indicates greater than 1000)
FAKLFAKAFKKAL-NH2 [P117, FAKLFAKAFKKAL-NH2] | > (> indicates greater than 1000)
FAKLWAKLAKKL-NH2 [P136] | 450 µg/mL
FAKKLAKLAKKL-NH2 [P106] | 920 µg/mL

system: HeLaS3; test: Anti-cancer assay, MTT, LD50; format: cell-based; details: 24 hours with peptide, cervical carcinoma
Source text: as §1

Substance | HeLaS3 LD50
FALKALKKAL-NH2 [P170, FALKALKKAL-NH2] | > (> indicates greater than 1000)
FAKKLAKALL-NH2 [P58] | > (> indicates greater than 1000)
FAKAIAKIAFGKGIGKVGKKLL-NH2 [P134] | > (> indicates greater than 1000)
FAKLF-NH2 [P129, FAKLF-NH2] | 550 µg/mL
FAKLLAKLAKK-NH2 [P151] | > (> indicates greater than 1000)
FAKLFAKAFKKAL-NH2 [P117, FAKLFAKAFKKAL-NH2] | > (> indicates greater than 1000)
FAKLWAKLAKKL-NH2 [P136] | 400 µg/mL
FAKKLAKLAKKL-NH2 [P106] | 700 µg/mL

system: MCF7; test: Anti-cancer assay, MTT, LD50; format: cell-based; details: MCF7 breast adenocarcinoma line, MTT, 24 hours with peptide
Source text: as §1

Substance | LD50 MCF7
FALKALKKAL-NH2 [P170, FALKALKKAL-NH2] | 940 µg/mL
FAKKLAKALL-NH2 [P58] | > (> indicates greater than 1000)
FAKAIAKIAFGKGIGKVGKKLL-NH2 [P134] | > (> indicates greater than 1000)
FAKLF-NH2 [P129, FAKLF-NH2] | > (> indicates greater than 1000)
FAKLLAKLAKK-NH2 [P151] | > (> indicates greater than 1000)
FAKLFAKAFKKAL-NH2 [P117, FAKLFAKAFKKAL-NH2] | > (> indicates greater than 1000)
FAKLWAKLAKKL-NH2 [P136] | 500 µg/mL
FAKKLAKLAKKL-NH2 [P106] | 620 µg/mL

system: PC3; test: Anti-cancer assay, MTT, LD50; format: cell-based; details: 24 hours with peptide, prostate adenocarcinoma
Source text: as §1

Substance | PC3 LD50
FALKALKKAL-NH2 [P170, FALKALKKAL-NH2] | > (> indicates greater than 1000)
FAKKLAKALL-NH2 [P58] | > (> indicates greater than 1000)
FAKAIAKIAFGKGIGKVGKKLL-NH2 [P134] | > (> indicates greater than 1000)
FAKLF-NH2 [P129, FAKLF-NH2] | > (> indicates greater than 1000)
FAKLLAKLAKK-NH2 [P151] | > (> indicates greater than 1000)
FAKLFAKAFKKAL-NH2 [P117, FAKLFAKAFKKAL-NH2] | > (> indicates greater than 1000)
FAKLWAKLAKKL-NH2 [P136] | 900 µg/mL
FAKKLAKLAKKL-NH2 [P106] | > (> indicates greater than 1000)

system: SW480; test: Anti-cancer assay, MTT, LD50; format: cell-based; details: SW480 colon adenocarcinoma line, 24 hours with peptide
Source text: as §1

Substance | LD50 SW480
FALKALKKAL-NH2 [P170, FALKALKKAL-NH2] | > (> indicates greater than 1000)
FAKKLAKALL-NH2 [P58] | > (> indicates greater than 1000)
FAKAIAKIAFGKGIGKVGKKLL-NH2 [P134] | 740 µg/mL
FAKLF-NH2 [P129, FAKLF-NH2] | 550 µg/mL
FAKLLAKLAKK-NH2 [P151] | > (> indicates greater than 1000)
FAKLFAKAFKKAL-NH2 [P117, FAKLFAKAFKKAL-NH2] | > (> indicates greater than 1000)
FAKLWAKLAKKL-NH2 [P136] | 600 µg/mL
FAKKLAKLAKKL-NH2 [P106] | 570 µg/mL

system: human red blood cells (RBC); test: in vitro; format: cell-based; details: hemolytic assay, concentration at 50% hemolysis, 1 hour at 37° C.

Substance | LD50
FALKALKKAL-NH2 [P170, FALKALKKAL-NH2] | > (> indicates greater than 1000)
FAKKLAKALL-NH2 [P58] | > (> indicates greater than 1000)
FAKAIAKIAFGKGIGKVGKKLL-NH2 [P134] | > (> indicates greater than 1000)
FAKLF-NH2 [P129, FAKLF-NH2] | > (> indicates greater than 1000)
FAKLLAKLAKK-NH2 [P151] | > (> indicates greater than 1000)
FAKLFAKAFKKAL-NH2 [P117, FAKLFAKAFKKAL-NH2] | > (> indicates greater than 1000)
FAKLWAKLAKKL-NH2 [P136] | > (> indicates greater than 1000)
FAKKLAKLAKKL-NH2 [P106] | > (> indicates greater than 1000)

system: WI38; test: not given; details: MTT, 24 hours with peptide; normal fibroblast line

Substance | WI38 LD50
FALKALKKAL-NH2 [P170, FALKALKKAL-NH2] | > (> indicates greater than 1000)
FAKKLAKALL-NH2 [P58] | > (> indicates greater than 1000)
FAKAIAKIAFGKGIGKVGKKLL-NH2 [P134] | > (> indicates greater than 1000)
FAKLF-NH2 [P129, FAKLF-NH2] | > (> indicates greater than 1000)
FAKLLAKLAKK-NH2 [P151] | > (> indicates greater than 1000)
FAKLFAKAFKKAL-NH2 [P117, FAKLFAKAFKKAL-NH2] | > (> indicates greater than 1000)
FAKLWAKLAKKL-NH2 [P136] | > (> indicates greater than 1000)
FAKKLAKLAKKL-NH2 [P106] | > (> indicates greater than 1000)

same assay, conditions: WI38 normal lung fibroblast line, MTT, 24 hours with peptide

Substance | LD50 WI38
FALKALKKAL-NH2 [P170, FALKALKKAL-NH2] | > (> indicates greater than 1000)
FAKKLAKALL-NH2 [P58] | > (> indicates greater than 1000)
FAKAIAKIAFGKGIGKVGKKLL-NH2 [P134] | > (> indicates greater than 1000)
FAKLF-NH2 [P129, FAKLF-NH2] | > (> indicates greater than 1000)
FAKLLAKLAKK-NH2 [P151] | > (> indicates greater than 1000)
FAKLFAKAFKKAL-NH2 [P117, FAKLFAKAFKKAL-NH2] | > (> indicates greater than 1000)
FAKLWAKLAKKL-NH2 [P136] | > (> indicates greater than 1000)
FAKKLAKLAKKL-NH2 [P106] | > (> indicates greater than 1000)
